Reference: ChEMBL document CHEMBL1137197, “Discovery of thiadiazoles as a novel structural class of potent and selective PDE7 inhibitors. Part 1: design, synthesis and structure-activity relationship studies” (Bioorg Med Chem Lett, 2004)
≈ marks a conversion by molar mass, not a printed value.

Columns and labels:
Phosphodiesterase 1 = Phosphodiesterase 1 (Homo sapiens, UniProt P54750+Q01064+Q14123); assay: Inhibition of human Phosphodiesterase 1 purified from THP-1 cells; assay type: cell-free
[1] = biological target: High affinity 3',5'-cyclic-AMP phosphodiesterase 7A (Homo sapiens, UniProt Q13946); assay: Inhibition of human Phosphodiesterase 7A1 expressed in baculovirus infected Sf9 cells
[2] = biological target: cGMP-specific 3',5'-cyclic phosphodiesterase (Homo sapiens, UniProt O76074); assay: Inhibition of human Phosphodiesterase 5 purified from MCF-7 cells; assay type: cell-free, MCF7
[3] = biological target: 3',5'-cyclic-AMP phosphodiesterase 4D (Homo sapiens, UniProt Q08499); assay: Inhibition of human Phosphodiesterase 4D3 expressed in baculovirus infected Sf9 cells
[4] = biological target: cGMP-inhibited 3',5'-cyclic phosphodiesterase 3A (Homo sapiens, UniProt Q14432); assay: Inhibition of human Phosphodiesterase 3A3 expressed in baculovirus infected Sf9 cells
[5] = Solubility at 7.4 pH; assay type: physicochemical; conditions: pH 7.4

cGMP-inhibited 3',5'-cyclic phosphodiesterase 3A, sequence (Q14432 whole entry): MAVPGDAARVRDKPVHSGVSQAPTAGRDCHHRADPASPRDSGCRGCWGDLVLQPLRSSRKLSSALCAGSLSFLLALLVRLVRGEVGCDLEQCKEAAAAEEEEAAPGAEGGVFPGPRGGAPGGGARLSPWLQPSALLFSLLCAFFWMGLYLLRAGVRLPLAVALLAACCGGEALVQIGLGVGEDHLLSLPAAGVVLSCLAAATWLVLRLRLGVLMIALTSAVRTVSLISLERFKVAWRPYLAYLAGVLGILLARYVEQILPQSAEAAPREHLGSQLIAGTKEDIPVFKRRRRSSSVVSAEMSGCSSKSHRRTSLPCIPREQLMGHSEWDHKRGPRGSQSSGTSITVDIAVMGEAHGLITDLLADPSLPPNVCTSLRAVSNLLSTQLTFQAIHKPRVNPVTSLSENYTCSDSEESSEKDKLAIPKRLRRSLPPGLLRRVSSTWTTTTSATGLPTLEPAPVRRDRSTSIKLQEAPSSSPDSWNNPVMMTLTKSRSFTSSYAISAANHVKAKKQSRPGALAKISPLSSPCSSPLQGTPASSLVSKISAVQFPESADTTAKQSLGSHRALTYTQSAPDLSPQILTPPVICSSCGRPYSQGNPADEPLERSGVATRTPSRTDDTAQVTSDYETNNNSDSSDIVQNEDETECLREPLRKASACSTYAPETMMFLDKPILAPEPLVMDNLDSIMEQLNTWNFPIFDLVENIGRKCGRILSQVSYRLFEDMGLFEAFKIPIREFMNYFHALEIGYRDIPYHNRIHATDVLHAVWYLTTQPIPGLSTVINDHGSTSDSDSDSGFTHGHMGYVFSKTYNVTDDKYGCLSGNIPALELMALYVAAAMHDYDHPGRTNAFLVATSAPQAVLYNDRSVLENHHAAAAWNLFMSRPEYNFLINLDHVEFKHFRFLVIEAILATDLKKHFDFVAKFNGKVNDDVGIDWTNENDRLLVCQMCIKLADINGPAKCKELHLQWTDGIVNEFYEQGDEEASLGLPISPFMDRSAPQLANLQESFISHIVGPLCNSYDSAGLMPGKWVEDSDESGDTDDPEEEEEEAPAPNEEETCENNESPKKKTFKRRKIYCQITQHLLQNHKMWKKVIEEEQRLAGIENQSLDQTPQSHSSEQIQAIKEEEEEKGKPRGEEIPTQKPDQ
3',5'-cyclic-AMP phosphodiesterase 4D, sequence (Q08499 whole entry): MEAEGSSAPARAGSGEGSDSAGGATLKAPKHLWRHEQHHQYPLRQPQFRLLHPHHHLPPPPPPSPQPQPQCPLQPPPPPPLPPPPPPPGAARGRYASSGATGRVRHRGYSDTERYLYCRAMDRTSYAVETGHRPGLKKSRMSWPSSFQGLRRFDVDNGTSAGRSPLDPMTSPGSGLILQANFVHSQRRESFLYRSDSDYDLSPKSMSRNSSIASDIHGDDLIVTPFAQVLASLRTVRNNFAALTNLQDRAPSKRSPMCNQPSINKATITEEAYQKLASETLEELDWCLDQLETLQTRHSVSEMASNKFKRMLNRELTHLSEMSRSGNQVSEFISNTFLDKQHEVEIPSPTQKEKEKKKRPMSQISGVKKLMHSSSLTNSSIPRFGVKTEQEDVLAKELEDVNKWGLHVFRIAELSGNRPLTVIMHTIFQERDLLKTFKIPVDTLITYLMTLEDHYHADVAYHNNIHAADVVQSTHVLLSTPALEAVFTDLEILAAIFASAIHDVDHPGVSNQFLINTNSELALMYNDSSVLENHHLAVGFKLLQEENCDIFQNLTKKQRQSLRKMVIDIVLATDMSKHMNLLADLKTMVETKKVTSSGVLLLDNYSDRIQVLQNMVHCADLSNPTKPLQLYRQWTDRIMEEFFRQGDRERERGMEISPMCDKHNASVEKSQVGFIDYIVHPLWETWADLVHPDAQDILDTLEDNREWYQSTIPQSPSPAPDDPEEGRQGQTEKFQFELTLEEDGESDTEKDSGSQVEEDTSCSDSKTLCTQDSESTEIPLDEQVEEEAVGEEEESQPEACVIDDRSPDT
High affinity 3',5'-cyclic-AMP phosphodiesterase 7A, sequence (Q13946 whole entry): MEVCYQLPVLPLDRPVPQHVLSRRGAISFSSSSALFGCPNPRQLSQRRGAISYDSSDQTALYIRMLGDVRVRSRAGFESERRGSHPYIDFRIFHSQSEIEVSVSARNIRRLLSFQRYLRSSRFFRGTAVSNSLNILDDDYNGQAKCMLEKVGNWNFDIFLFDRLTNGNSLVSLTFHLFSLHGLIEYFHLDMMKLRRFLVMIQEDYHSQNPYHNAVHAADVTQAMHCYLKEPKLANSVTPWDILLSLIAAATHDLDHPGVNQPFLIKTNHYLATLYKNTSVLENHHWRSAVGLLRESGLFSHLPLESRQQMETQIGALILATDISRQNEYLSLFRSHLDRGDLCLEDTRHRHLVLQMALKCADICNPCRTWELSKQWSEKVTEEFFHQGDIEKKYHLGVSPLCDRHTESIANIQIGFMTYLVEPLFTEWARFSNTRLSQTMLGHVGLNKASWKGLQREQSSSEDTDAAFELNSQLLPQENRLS

Structure (SMILES)	IC50 (Phosphodiesterase 1)	IC50 [1]	IC50 [2]	IC50 [3]	IC50 [4]	solubility [5]
Cn1nc(-c2ccc(Cl)cc2)s/c1=N\c1cccc(-c2nn[nH]n2)c1	3.34 µM	0.08 µM	7 µM	4.26 µM	1.71 µM	
CN(C)CCN(C)C(=O)c1ccc(-c2nn(C)/c(=N/C3CCCCC3)s2)cc1		0.47 µM		> 101 µM		
Cn1nc(-c2ccc(Cl)cc2)s/c1=N\c1ccccc1O	> 101 µM	5.3 µM	> 101 µM	> 101 µM	> 101 µM	
Cn1nc(-c2ccc(Cl)cc2)s/c1=N\c1ccccc1		2.95 µM		38 µM		
Cn1nc(-c2ccc(Cl)cc2)s/c1=N\C1(CO)CCCC1		4 µM		> 101 µM		
Cn1nc(-c2ccc(N)cc2)s/c1=N\C1CCCCC1		0.56 µM		25.7 µM		
Cn1nc(-c2ccc(Cl)cc2)s/c1=N\c1ccc(C(=O)O)cc1	28.93 µM	4.6 µM	40.3 µM	> 101 µM	30.7 µM	
Cn1nc(-c2ccc(Cl)cc2)s/c1=N\c1cccc(F)c1	> 101 µM	6.6 µM	> 101 µM	> 101 µM	> 101 µM	
Cn1nc(-c2ccc(Cl)cc2)s/c1=N\C1CCC1		4.8 µM		6.3 µM		
CN(C)CCNC(=O)c1ccc(-c2nn(C)/c(=N/C3CCCCC3)s2)cc1		0.06 µM		33.3 µM		83 µg/mL (≈ 214 µM)
Cn1nc(-c2ccc(Cl)cc2)s/c1=N\c1cccc(C(N)=O)c1	7.83 µM	1.63 µM	> 101 µM	44.5 µM	2.65 µM	
Cn1nc(-c2ccc(C(N)=O)cc2)s/c1=N\C1CCCCC1		0.06 µM		15.3 µM		
Cn1nc(-c2cccc(Cl)c2)s/c1=N\C1CCCCC1				> 101 µM		
Cn1nc(-c2ccc(Cl)cc2)s/c1=N\c1cccc(C(=O)O)c1	16.38 µM	0.14 µM	7.27 µM	21.3 µM	7.47 µM	
COC(=O)c1ccccc1-c1nn(C)/c(=N/C2CCCCC2)s1		7.5 µM		30 µM		
CCNS(=O)(=O)c1cc(-c2nn(C)/c(=N/C3CCCCC3)s2)ccc1Cl		0.02 µM		5.84 µM		
COc1c(O)cc(-c2nn(C)/c(=N/C3CCCCC3)s2)cc1O		0.06 µM		11.9 µM		
Cn1nc(-c2ccc3c(N)ncnc3c2)s/c1=N\C1CCCCC1		0.02 µM		> 101 µM		
Cn1nc(-c2cccc(O)c2)s/c1=N\C1CCCCC1				22.2 µM		
Cn1nc(-c2ccc(Cl)cc2)s/c1=N\c1ccc(F)c(C(=O)O)c1	21.58 µM	0.16 µM	17.9 µM	39.7 µM	17 µM	

Structure (SMILES)	IC50 (Phosphodiesterase 1)	IC50 [1]	IC50 [2]	IC50 [3]	IC50 [4]	solubility [5]
Cn1nc(-c2ccc(Cl)cc2)s/c1=N\c1ccc(O)c(C(=O)O)c1	5.23 µM	0.15 µM	3.97 µM	7.05 µM	5.58 µM	
CCC(CC)/N=c1\sc(-c2ccc(Cl)cc2)nn1C		5.6 µM		> 101 µM		
Cn1nc(-c2ccc(C(=O)NCCN3CCOCC3)cc2)s/c1=N\C1CCCCC1		0.03 µM		8.77 µM		17 µg/mL (≈ 39.6 µM)
COc1cc(-c2nn(C)/c(=N/C3CCCCC3)s2)ccc1C(N)=O		0.47 µM		> 101 µM		
Cn1nc(-c2ccc(S(C)(=O)=O)cc2)s/c1=N\C1CCCCC1		0.13 µM		25 µM		
Cc1cccc(C(=O)O)c1/N=c1\sc(-c2ccc(Cl)cc2)nn1C	14.06 µM	1.37 µM	23.6 µM	20.5 µM	20.5 µM	
Cn1nc(-c2ccc(C(N)=O)c(O)c2)s/c1=N\C1CCCCC1		0.12 µM		19.3 µM		
Cn1nc(-c2cccc(C(N)=O)c2)s/c1=N\C1CCCCC1		0.09 µM		19.3 µM		
Cn1nc(-c2ccc(C(N)=O)c(N)c2)s/c1=N\C1CCCCC1		0.08 µM		26 µM		
Cn1nc(-c2ccc(Cl)cc2)s/c1=N\C1CCC(N)CC1 (stereo unspecified)		5.9 µM		> 101 µM		
CC(=O)Nc1ccc(-c2nn(C)/c(=N/C3CCCCC3)s2)cc1				34.2 µM		
Cn1nc(-c2cccc(S(N)(=O)=O)c2)s/c1=N\C1CCCCC1				15 µM		
CCC/N=c1\sc(-c2ccc(Cl)cc2)nn1C		7.7 µM		26 µM		
Cn1nc(-c2ccc(Cl)cc2)s/c1=N\C1CC2CCC1C2 (stereo unspecified)				> 101 µM		
Cn1nc(-c2cccc(C(=O)O)c2)s/c1=N\C1CCCCC1				22.3 µM		
Cn1nc(-c2ccc(Cl)cc2)s/c1=N\c1cccc(C(=O)O)c1O	9.28 µM	0.26 µM	5.18 µM	14.2 µM	9.83 µM	
Cn1nc(-c2ccc(Cl)cc2)s/c1=N\c1cccc(CC(=O)O)c1	40.34 µM	2.13 µM	20.2 µM	23 µM	8.57 µM	
Cn1nc(-c2ccc(Cl)cc2)s/c1=N\C(C)(C)CO		1.9 µM		37 µM		
Cn1nc(-c2ccc(Cl)cc2)s/c1=N\C1CN2CCC1C2 (stereo unspecified)		5.9 µM		79 µM		
Cn1nc(-c2ccc(O)cc2)s/c1=N\C1CCCCC1				12.2 µM		

Structure (SMILES)	IC50 (Phosphodiesterase 1)	IC50 [1]	IC50 [2]	IC50 [3]	IC50 [4]	solubility [5]
Cn1nc(-c2ccc(Cl)cc2)s/c1=N\C1CCCC1		3.08 µM		81.5 µM		
COC(=O)c1cccc(-c2nn(C)/c(=N/C3CCCCC3)s2)c1		0.14 µM		19 µM		
Cn1nc(-c2ccc(Cl)cc2)s/c1=N\c1c(O)cccc1C(=O)O	28.84 µM	1.31 µM	18.8 µM	58.2 µM	49.4 µM	
Cc1nc(N)c2ccc(-c3nn(C)/c(=N/C4CCCCC4)s3)cc2n1		0.0039 µM		92.3 µM		
Cn1nc(-c2ccc(Cl)cc2)s/c1=N\c1ccc(F)cc1	85.68 µM	2.2 µM	101 µM	> 101 µM	> 101 µM	
Cn1nc(-c2ccc(Cl)c(S(N)(=O)=O)c2)s/c1=N\C1CCCCC1		0.06 µM		5.9 µM		
Cn1nc(-c2ccc(Cl)cc2)s/c1=N\c1cccc(C#N)c1	> 101 µM	5.7 µM	> 101 µM	36.3 µM	47.2 µM	
Cn1nc(-c2ccccc2Cl)s/c1=N\C1CCCCC1				40 µM		
Cc1cc(-c2nn(C)/c(=N/C3CCCCC3)s2)ccc1C(N)=O		0.93 µM		44.7 µM		
Cn1nc(-c2ccc(C(=O)O)cc2)s/c1=N\C1CCCCC1				32.2 µM		
COC(=O)c1ccc(-c2nn(C)/c(=N/C3CCCCC3)s2)cc1				95.5 µM		
Cn1nc(-c2ccc(Cl)cc2)s/c1=N\C1CCCCC1		1.5 µM		57 µM		
Cn1nc(-c2ccc(Cl)cc2)s/c1=N\c1cccc(-c2noc(O)n2)c1	3.56 µM	0.44 µM	7.56 µM	5.63 µM	1.89 µM	
Cn1nc(-c2ccc(Cl)cc2)s/c1=N\c1ccc(O)cc1	> 101 µM	1.7 µM	> 101 µM	13 µM	101 µM	
Cn1nc(-c2ccc(Cl)cc2)s/c1=N\c1cccc(O)c1	9.81 µM	1.8 µM	10.9 µM	> 101 µM	6.13 µM	
Cn1nc(-c2ccc(Cl)cc2)s/c1=N\C1CCCCCCC1		1.65 µM		> 101 µM		
Cn1nc(-c2ccccc2O)s/c1=N\C1CCCCC1		6.4 µM		71 µM		
Cn1nc(-c2ccc(S(N)(=O)=O)cc2)s/c1=N\C1CCCCC1		0.15 µM		11 µM		
CC(C)/N=c1\sc(-c2ccc(Cl)cc2)nn1C		3.9 µM		17 µM		
